From patent US4151282A, “Compositions and methods for treating diabetic complications” (A. H. Robins Company, Inc., priority 1977, dated 1979)

Legend:
[1] = biological target: T1, Aldose reductase isolated from bovine lens (Bos taurus, UniProt P16116); test: Inhibition of aldose reductase isolated from bovine lens (Lineweaver-Burk); assay type: biochemical; conditions: procedure of Lineweaver and Burk, read-out: Amount which inhibits the maximum velocity of the aldose reductase activity by 50% (IC50)
T1 construct: Aldose reductase was isolated from bovine lens; from tissue; host or cells: bovine lens
Experimental: The ability of 4,5-dihydro-4H-pyrrolo[3,2,1-ij]quinoline-1,2-dione to inhibit aldose reductase activity was determined according to the procedure of Lineweaver, H., and Burk D., The Determination of Enzyme Dissociation Constants, J. Am. Chem. Soc. 658-666 (1934).
Aldose reductase was isolated from bovine lens and the activity of the enzyme determined according to Gabbay, R. H. and Kinoshita, J. H., Methods in Enzymology, Vol. XLI (B) 37:159.

aldose reductase = test: Lens polyol (dulcitol) accumulation in galactose-fed rats; assay type: in vivo, rat (male albino, Spraque-Dawley); conditions: for Mean Polyol Accumulation, Micromoles Dulcitol/g of Tissue: rat lens 24 h after third dose
Experimental: As discussed hereinabove, sugar cataract formation is a frequent complication of the diabetic patient and their occurrence is apparent even in patients where diabetes appears controlled. […] The accumulation of polyols in the lens tissue results in osmotic and histological changes which are characteristic of sugar cataracts. […] Control rats received a 10% galactose solution at a dose level of 10 ml/kg. daily for three days. The total dose was 1 g/kg daily. Six animals per control group were used. Groups receiving galactose plus test drug contained three rats. The routine starting dose of a test drug was 100 mg/kg. orally for three days with galactose given simultaneously. The test drug was administered at a volume of 5 ml/kg. The test drug solution and the galactose solution were administered together. Twenty-four hours after the third dose the lens of the eyeballs were carefully removed from the sacrificed rats and the polyol content of the lens determined according to West and Rapport, Proc. Soc. Exp. Biol. Med. 70, 141-142 (1949).

Row | SMILES | IC50 [1] | Mean Polyol Accumulation, Micromoles Dulcitol/g of Tissue (aldose reductase; Experiment No. 1, 100 mg/kg PO daily for three days with galactose 1 g/kg daily, galactose controls 3.7) | Mean Polyol Accumulation, %± Control (aldose reductase; Experiment No. 1, 100 mg/kg PO daily for three days with galactose, rat lens, vs galactose controls) | Mean Polyol Accumulation, %± Control (aldose reductase; po, 100 mg/kg, 72 h) | Mean Polyol Accumulation, Micromoles Dulcitol/g of Tissue (aldose reductase; Experiment No. 1, 200 mg/kg PO daily for three days with galactose 1 g/kg daily, galactose controls 3.7) | Mean Polyol Accumulation, %± Control (aldose reductase; Experiment No. 1, 200 mg/kg PO daily for three days with galactose, rat lens, vs galactose controls) | Mean Polyol Accumulation, Micromoles Dulcitol/g of Tissue (aldose reductase; Experiment No. 2, 100 mg/kg PO daily for three days with galactose 1 g/kg daily, galactose controls 4.3) | Mean Polyol Accumulation, %± Control (aldose reductase; Experiment No. 2, 100 mg/kg PO daily for three days with galactose, rat lens, vs galactose controls)
1 | O=C1C(=O)N2CCCc3cccc1c32 [AHR-5191, 5,6-dihydro-4H-pyrrolo[3,2,1-ij]quinoline-1,2-dione] | 80 µM | 2.1 Micromoles Dulcitol/g of Tissu | -43.2% | -37.0% |  |  |  | 
2 | O=C(O)CN1C(=O)c2cccc3cccc(c23)C1=O [Ay-22,284, 1,3-dioxo-1H-benz[de]isoquinoline-2(3H) acetic acid] | 90 µM |  |  |  | 2.7 Micromoles Dulcitol/g of Tissu | -27% | 5.9 Micromoles Dulcitol/g of Tissu | +37.2%
